Earlier results in patent EP1019029B1, “MONOLITHIC SYSTEM CONTAINING ONE OR MORE DRUGS, CONSISTING OF THREE LAYERS WITH DIFFERENT RELEASE MECHANISMS” (CHIESI FARMACEUTICI S.p.A., priority 1997, dated 1999).
Like-named read-outs stand apart in the source and are kept apart here.

Row | water solubilities (at 37°C) [mg/mL] | water solubilities (at 20°C) [mg/mL] | SMILES
1 | 2.5 |  | C[C@@](Cc1ccc(O)c(O)c1)(NN)C(=O)O [Carbidopa]
2 |  | 500 | COC(=O)[C@@H](N)Cc1ccc(O)c(O)c1 [Levodopa methyl ester]
